From BindingDB's records for doi:10.1016/j.bmc.2019.115214 (Nankai University, 2020)

Assay: Inhibition of HIV1 gp41- induced cell-cell fusion between viral envelope expressed in human HL2/3 cells to CD4/CCR5 receptor expressed TZM-bl cells after 6 hrs by luciferase assay

Going from “H-RIQQIEQKIHHIEQRIQQIEQLLQLTVWGIKQLQARIL-OH” to “H-RIQQIEQKIHHIEQRIQQIEQRIEAQQHLLQLTVWGIKQLQARIL-OH”, the IC50 falls from 0.251 µM to 0.039 µM (6.4-fold). The second is the more potent here.

Compared with “H-RIQQIEQKIHHIEQRIQQIEQRISGIVQQQNNLLRIEAQQHLLQLTVWGIKQLQARIL-OH”, H-YTSLIHSLIEEQNQQEKNEQELLELDKWALWNWF-OH is 33-fold lower in IC50: 0.082 µM for the first, 0.0025 µM for the second.
